Reference: patent publication US11357760B2, “Method of treating liver fibrosis” (ChemoCentryx, Inc., priority 2016, dated 2022)

Columns and labels:
[1] = test system: MCD-induced NASH model; test: Methionine-choline deficient (MCD) induced NASH model; type: in vivo, mice C57Bl/6; conditions: Compound 1 subcutaneously, CVC orally; for serum ALT levels: FIG. 5; for trough drug level: 30 mg/kg
Method: (§1) Compound 1 was administered subcutaneously to maintain high systemic levels. […] Formalin-fixed, paraffin-embedded liver sections were stained separately with hematoxylin & eosin (H&E) and for Sirius red Picrosirius red (#365548, Sigma) and evaluated for severity of liver fibrosis. All pathologic evaluations were made by a pathologist on a random and blinded basis. Collagen surface density was quantified using Image J (NIH). Two Sirius red-stained slides per animal were taken at different depth, with 18 images taken randomly per slide for a total of 36 images per animal for collagen quantification. Liver enzymes were assayed by Antech GLP (Morrisville, N.C.). Insulin was measured with Ultrasensitive. Mouse Insulin ELISA kit (Crystal Chem Inc: #90080); Blood glucose and insulin levels were determined after an overnight fast (14-16 h). Insulin sensitivity was determined by the homeostatic model assessment of insulin resistance (HOMA-IR). Lipids were measured in the serum and liver with a Triglyceride Colorimetric Assay kit (Cayman Chemical Company: #10010303), a Free Fatty Acid Quantification kit, (Abcam, ab65341) and Cholesterol Quantification kit (Abcam, ab65359).

[2] = target: CCR5 (Homo sapiens, UniProt P51681); conditions: summary of Table 1
Method: A conventional migration assay was used to determine the efficacy of potential receptor antagonists in blocking migration mediated through MIP1b. This assay was routinely performed using the ChemoTX® (Neuroprobe) microchamber system with a 5-mum pore-sized polycarbonate membrane. CCR5 expressing cells (IL-2 Lymphocytes or L1.2CCR5 cells) were harvested by centrifugation of cell suspension at 1000 RPM on a GS-6R Beckman centrifuge. […] An equal volume of cells and compounds were mixed and incubated at room temperature for 15 minutes. Afterwards, 20 μl of the mixture was transferred onto the porous membrane of a migration microchamber, with 29 μl of MIP1b ligand (0.1 nM MIP1b protein) placed at the lower chamber. Following incubation at 37 degrees centigrade (90-minute), the assay was terminated by removing the cell drops from atop the filter. To quantify cells migrated across the membrane, 5 mul_ of 7× CyQUANT® (ThermoFisher) solution was added to each well in the lower chamber, and the fluorescence signal measured on a Spectrafluor Plus fluorescence plate reader (TECAN, Durham, N.C.). The degree of inhibition was determined by comparing migration signals between compound-treated and untreated cells. IC50 calculation was further performed by non-linear squares regression analysis using Graphpad Prism (Graphpad Software, San Diego, Calif.).

[3] = test system: HFD/fructose-induced NASH model; test: High fat diet (HFD)/fructose-induced NASH model; type: in vivo, mice C57Bl/6; conditions: 30 mg/kg subcutaneously once per day for 8 weeks
Excerpt: as §1, with “Male wild-type (WT) mice C57Bl/6 were obtained from Jackson Laboratory and fed either with high-fat diet (D12492, 60 Cal % fat, Research Diets, New Brunswick, N.J.) with 30% fructose in the drink water or a lean control diet (D12450B, 10 Cal % fat, Research Diets) at 6-8 week of age and maintained on the respective diet for the duration of the study (16-32 weeks). […] Sirius red-staining” for “Compound 1”, “used” for “administered subcutaneously”, “evaluate the severity of liver fibrosis.” for “maintain high systemic levels.”

Sequence of CCR5 (P51681 whole entry, species assumed): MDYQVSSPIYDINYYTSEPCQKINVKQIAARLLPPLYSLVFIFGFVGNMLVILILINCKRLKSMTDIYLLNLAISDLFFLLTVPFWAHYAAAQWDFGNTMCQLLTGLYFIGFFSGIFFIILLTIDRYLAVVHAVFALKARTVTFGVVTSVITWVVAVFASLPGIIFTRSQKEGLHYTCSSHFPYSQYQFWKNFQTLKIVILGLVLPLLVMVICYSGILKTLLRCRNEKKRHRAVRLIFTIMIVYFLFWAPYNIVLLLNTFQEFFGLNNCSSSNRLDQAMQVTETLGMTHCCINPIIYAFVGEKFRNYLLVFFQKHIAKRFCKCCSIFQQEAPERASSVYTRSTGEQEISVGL

Structure (SMILES) | serum ALT levels ([1]; 30 mg/kg for 8 weeks) | trough drug level [1] | CCR5 inhibition (in words) [2] | change in body weight compared to vehicle ([3]; FIG. 1) | serum ALT levels ([3]; FIG. 2) | serum AST levels ([3]; FIG. 2) | percentage of Sirius red staining (liver fibrosis) compared to vehicle ([3]; FIG. 4) | Sirius red-positive staining (liver fibrosis) ([1]; 30 mg/kg for 8 weeks, FIG. 6)
CCCCOCCOc1ccc(-c2ccc3c(c2)/C=C(/C(=O)Nc2ccc([S@@+]([O-])Cc4cncn4CCC)cc2)CCCN3CC(C)C)cc1 [CVC, cenicriviroc, reference compound] | does not | over IC50 | potent CCR5 inhibitor | – | – | – | – | –
Cc1cnc(C(=O)c2ccnc3[nH]ccc23)c(NS(=O)(=O)c2ccc(Cl)c(C(F)(F)F)c2)c1 [Compound 1] | significantly reduces | over IC50 | – | did not change | reduced | reduced | reduced | reduces
